Assay results from patent publication US20250129086A1, “COMPOUND FOR DEGRADING EGFR PROTEIN AND USE THEREOF” (TYK MEDICINES, INC., priority 2021, published 2025).

Experiments:
[1] = target: T1, EGFR (Homo sapiens, UniProt P00533, DEL746-750); experiment: EGFR PROTAC In Cell Western assay in HCC827; assay type: cell-based; conditions: HCC827, EGFR degradation, 16 hours of incubation
T1 construct: host or cells: HCC827
Excerpt: Test Example 2 EGFR PROTAC in Cell Western Assay
HCC827 cell culture medium was purchased from Corning. Cell line HCC827 was purchased from BeNa Culture Collection; EGF Receptor (D38B1) XP Rabbit mAb antibody and β-Actin (8H10D10) Mouse mAb antibody were from CST. IRDye 800CW, IRDye 680RD, and Intercept blocking solution (PBS) were purchased from Licor. Triton-100 was purchased from sigma, and 96-well black cell culture imaging microtiter plates were purchased from Agilent.
1) HCC827 cells were cell counted and cells were inoculated into 96-well black cell culture imaging microtiter plates at a density of 40,000 cells per well, with 100 μl per well. The plate was incubated overnight in a CO2 incubator.
2) Day 1: A gradient dilution of the compound to be tested was added to the cells of the culture plate (with a starting concentration of […], 9 concentrations, a dilution ratio of 1:3, 2 duplicate wells), with a final concentration of DMSO being 0.5%, and a blank control of DMSO without compound. The plate was placed in the cell culture incubator for a final 16 hours of incubation.
3) The culture medium was removed from the 96 wells with a pipette and the residual medium was washed with […] of PBS per well on a shaker for 5 min. After the removal of PBS, cells were quickly fixed by adding 150 μl of fresh fixation buffer (3.7% paraformaldehyde) and incubated for 20 min at room temperature.
4) The fixation buffer was removed and […] of Triton elution buffer (0.3% Triton-100) was added to wash for four times on a shaker for 5 minutes each time.
5)[…] LI-COR Odyssey blocking solution was added and the cells were incubated for 1.5 hours at room temperature with slow shaking on a shaker.
6) To block the samples, a primary antibody against EGFR and Actin were prepared using Antibody Dilution Buffer at a ratio of 1:300. The blocking solution was poured out and the diluted primary antibody was added (at a total volume of 50 μl/per well). The cell plate was covered and incubated at 4° C. overnight.
7) The cell plate was washed four times with PBS+Triton X-100 for 5 minutes each time.
8) Fluorescently labeled secondary antibodies IRDye® 680RD and IRDye® 800CW were diluted with Antibody Dilution Buffer (with a ratio of 1:600, at a total volume of 50 μl/well) and then incubated for one hour at room temperature, protected from light.
9) The cell plate was washed four times with PBS+Triton X-100 for 5 minutes each time.
After pipetting the PBS thoroughly, the plate was inverted and imaged on a Burroughs imager. A multiple exposure program was selected, IRDye 680RD Blot was chosen for the first channel, and IRDye 800CW Blot was chosen for the second channel. […] The blank group was the DMSO group, EGFR/Actin was calculated as the EGFR value of the corresponding sample wells, and the degradation rate=100-100*EGFR signal/DMSO signal. The DC50 and Dmax of the degraded EGFR proteins were calculated by fitting curves using the Prism software, 3-parameter method.

[2] = test system: PC-9 (EGFR exon 19 deletion); experiment: Cell antiproliferative assay (CTG, 72 h), PC-9; assay type: cell-based, human; conditions: Homo sapiens, PC-9, 72 h
Procedure, shortened: (§1)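 Viability by CTG luminescence after 72 h compound exposure, normalised between blank medium and 0.1% DMSO controls, with IC50 from fitted curves. Dosing in triplicate, top 10,000 nM, 4-fold dilutions, applied about 24 h after plating 1500-2500 cells per well.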

[3] = test system: H1975 (EGFR L858R/T790M double mutation); experiment: Cell antiproliferative assay (CTG, 72 h), H1975; assay type: cell-based, human; conditions: Homo sapiens, NCI-H1975, 72 h
Procedure, shortened: as §1

[4] = test system: HCC827 (exon 19 deletion mutation); experiment: Cell antiproliferative assay (CTG, 72 h), HCC827; assay type: cell-based, human; conditions: Homo sapiens, HCC827, 72 h
Procedure, shortened: as §1

T1 sequence (P00533 with tags, fused parts or gaps DEL746-750): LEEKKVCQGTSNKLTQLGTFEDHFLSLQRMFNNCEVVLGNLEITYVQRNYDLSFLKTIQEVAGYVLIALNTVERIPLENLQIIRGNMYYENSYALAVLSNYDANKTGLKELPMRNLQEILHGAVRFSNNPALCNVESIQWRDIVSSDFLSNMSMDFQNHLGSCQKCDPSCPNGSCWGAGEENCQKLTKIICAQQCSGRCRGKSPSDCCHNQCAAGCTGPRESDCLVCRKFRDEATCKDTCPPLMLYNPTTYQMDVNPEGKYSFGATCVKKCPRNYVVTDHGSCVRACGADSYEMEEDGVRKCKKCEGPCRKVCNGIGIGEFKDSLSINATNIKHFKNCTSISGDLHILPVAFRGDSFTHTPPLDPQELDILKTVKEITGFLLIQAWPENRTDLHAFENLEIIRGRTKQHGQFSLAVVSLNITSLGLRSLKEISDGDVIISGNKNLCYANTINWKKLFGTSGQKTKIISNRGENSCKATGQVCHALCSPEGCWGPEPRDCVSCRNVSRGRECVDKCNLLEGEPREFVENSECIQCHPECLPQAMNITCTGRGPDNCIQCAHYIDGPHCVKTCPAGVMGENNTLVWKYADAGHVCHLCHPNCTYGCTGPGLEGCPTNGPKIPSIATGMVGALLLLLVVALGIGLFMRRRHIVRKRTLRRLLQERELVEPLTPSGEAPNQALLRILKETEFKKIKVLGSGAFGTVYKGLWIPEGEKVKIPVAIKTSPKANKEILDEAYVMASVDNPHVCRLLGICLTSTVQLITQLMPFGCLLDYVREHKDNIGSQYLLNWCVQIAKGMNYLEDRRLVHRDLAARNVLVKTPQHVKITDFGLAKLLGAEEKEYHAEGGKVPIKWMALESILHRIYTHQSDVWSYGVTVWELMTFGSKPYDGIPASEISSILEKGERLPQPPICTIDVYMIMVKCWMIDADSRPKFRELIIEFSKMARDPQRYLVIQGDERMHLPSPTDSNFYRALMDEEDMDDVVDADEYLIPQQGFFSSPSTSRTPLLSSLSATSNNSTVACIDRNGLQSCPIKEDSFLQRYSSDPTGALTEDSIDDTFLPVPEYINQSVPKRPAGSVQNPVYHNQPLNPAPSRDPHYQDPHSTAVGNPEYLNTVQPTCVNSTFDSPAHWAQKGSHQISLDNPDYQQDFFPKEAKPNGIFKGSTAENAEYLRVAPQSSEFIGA

SMILES | Dmax ([1]; HCC827, Table 4) [%] | DC50 ([1]; Table 4) [nM] | IC50 ([2]; Table 2, PC-9 cells) [nM] | IC50 ([3]; Table 2, H1975 cells) [nM] | IC50 ([4]; Table 2, HCC827 cells) [nM] | Dmax ([1]; HCC827, Table 5) [%] | DC50 ([1]; Table 5) [nM] | IC50 ([2]; Table 3, PC-9 cells) [nM] | IC50 ([3]; Table 3, H1975 cells) [nM] | IC50 ([4]; Table 3, HCC827 cells) [nM]
COc1cc(N2CC(NC(=O)CN3CCC(c4ccc(NC5CCC(=O)NC5=O)cc4)CC3)C2)ccc1Nc1ncc(Cl)c(Nc2ccccc2C(C)=O)n1 (stereo not drawn) [Compound T-169] | < 50 | ≥ 1000 | 100 to 1000 | 100 to 1000 | 100 to 1000 |  |  |  |  | 
C=CC(=O)Nc1cc(Nc2ncc(Cl)c(Nc3ccccc3)n2)c(OC)cc1N1CCN(C(=O)CN2CCC(c3ccc(NC4CCC(=O)NC4=O)cc3)CC2)CC1 (stereo not drawn) [Compound T-335] | 50 to 70 | 100 to 1000 | 100 to 1000 | 100 to 1000 | 100 to 1000 |  |  |  |  | 
COc1cc(N2CCN(C(=O)CN3CCC(c4ccc(NC5CCC(=O)NC5=O)cc4)CC3)C(C)C2)ccc1Nc1ncc(Cl)c(Nc2ccccc2C(C)=O)n1 (stereo not drawn) [Compound T-63] | 50 to 70 | 100 to 1000 | 100 to 1000 | 10 to 100 | 100 to 1000 |  |  |  |  | 
COc1cc(N2CCC(N(C)C(=O)CN3CCC(c4ccc(NC5CCC(=O)NC5=O)cc4)CC3)CC2)ccc1Nc1ncc(C(F)(F)F)c(Nc2ccccc2C(C)=O)n1 (stereo not drawn) [Compound T-163] | 50 to 70 | 100 to 1000 | 100 to 1000 | 10 to 100 | 100 to 1000 |  |  |  |  | 
COc1cc(N2CCC(N(C)C(=O)C3CCN(CC4CCN(c5ccc6c(c5)C(=O)N(C5CCC(=O)NC5=O)C6=O)CC4)CC3)CC2)ccc1Nc1ncc(Cl)c(Nc2ccccc2C(C)=O)n1 (stereo not drawn) [Compound T-228] | < 50 | 100 to 1000 |  | 10 to 100 |  |  |  |  |  | 
COc1cc(N2CC3CC(C2)N3C(=O)CN2CCC(c3ccc(NC4CCC(=O)NC4=O)cc3)CC2)ccc1Nc1ncc(Cl)c(Nc2ccccc2C(C)=O)n1 (stereo not drawn) [Compound T-125] | < 50 | 10 to 100 | ≥ 1000 | 100 to 1000 | 100 to 1000 |  |  |  |  | 
COc1cc(N2C3CCC2CN(C(=O)CN2CCC(c4ccc(NC5CCC(=O)NC5=O)cc4)CC2)C3)ccc1Nc1ncc(Cl)c(Nc2ccccc2C(C)=O)n1 (stereo not drawn) [Compound T-191] | 50 to 70 | 100 to 1000 | 100 to 1000 | 10 to 100 | 100 to 1000 |  |  |  |  | 
COc1cc(N2CCC(N3CCN(C(=O)CCCCN4CCN(c5ccc6c(c5)C(=O)N(C5CCC(=O)NC5=O)C6=O)CC4)CC3)CC2)ccc1Nc1ncc(Cl)c(Nc2ccccc2N(C)S(C)(=O)=O)n1 (stereo not drawn) [Comparative Compound 3, reference compound] | 50 to 70 | 10 to 100 | 100 to 1000 | 100 to 1000 | 10 to 100 | 56.4 | 15.2 | 682 | 386 | 72.5
O=C1CCC(Nc2ccc(C3CCN(CC(=O)N4CCN(c5ccc(-c6cc(F)c7c(c6)C(=O)N(C(C(=O)Nc6nccs6)c6ncn8c6CCC8)C7)cc5)CC4)CC3)cc2)C(=O)N1 (stereo not drawn) [Comparative Compound 1, reference compound] | < 50 | ≥ 1000 | ≥ 1000 | 100 to 1000 | ≥ 1000 |  |  | > 5000 | 548 | > 5000
COc1cc(N2CCN(C(=O)CN3CCC(c4ccc(NC5CCC(=O)NC5=O)cc4)CC3)CC2)ccc1Nc1ncc(Br)c(Nc2cccc3c2C(=O)NC3)n1 (stereo not drawn) [Compound T-272] |  |  | 10 to 100 | ≤ 10 | 10 to 100 |  |  |  |  | 
COc1cc(N2CC3CN(C(=O)CN4CCC(c5ccc(NC6CCC(=O)NC6=O)cc5)CC4)CC3C2)ccc1Nc1ncc(Cl)c(Nc2ccccc2C(C)=O)n1 (stereo not drawn) [Compound T-188] |  |  | 100 to 1000 | 10 to 100 | 100 to 1000 |  |  |  |  | 
COc1cc(C(=O)N2CCC(c3ccc(NC4CCC(=O)NC4=O)cc3)CC2)ccc1Nc1ncc(Cl)c(Nc2ccccc2C(C)=O)n1 (stereo not drawn) [Compound T-130] | < 50 | 100 to 1000 |  |  |  |  |  |  |  | 

Now from value to molecule:

Dmax ([1]; HCC827, Table 4) [%] | DC50 ([1]; Table 4) [nM] | IC50 ([2]; Table 2, PC-9 cells) [nM] | IC50 ([3]; Table 2, H1975 cells) [nM] | IC50 ([4]; Table 2, HCC827 cells) [nM] | Dmax ([1]; HCC827, Table 5) [%] | DC50 ([1]; Table 5) [nM] | IC50 ([2]; Table 3, PC-9 cells) [nM] | IC50 ([3]; Table 3, H1975 cells) [nM] | IC50 ([4]; Table 3, HCC827 cells) [nM] | SMILES
< 50 | 10 to 100 |  |  |  |  |  |  |  |  | COc1cc(N2CCN(C(=O)CN3CCC(c4ccc(NC5CCC(=O)NC5=O)cc4)CC3)CC2)ccc1Nc1ncc(C(F)(F)F)c(Nc2ccc(F)cc2F)n1 (stereo not drawn) [Compound T-131]
50 to 70 | 10 to 100 | 10 to 100 | ≤ 10 | 10 to 100 |  |  |  |  |  | COc1cc(N2CCN(C(=O)CN3CCC(c4ccc(NC5CCC(=O)NC5=O)cc4)CC3)CC2)ccc1Nc1ncc(Cl)c(Nc2ccccc2N(C)S(C)(=O)=O)n1 (stereo not drawn) [Compound T-227]
< 50 | 10 to 100 | 100 to 1000 | 10 to 100 | 100 to 1000 |  |  |  |  |  | COc1cc(N2CCC(N3CCN(C(=O)CCCCN4CCC(c5ccc(NC6CCC(=O)NC6=O)cc5)CC4)CC3)CC2)ccc1Nc1ncc(Cl)c(Nc2ccccc2N(C)S(C)(=O)=O)n1 (stereo not drawn) [Compound T-220]
50 to 70 | 10 to 100 | 100 to 1000 | 10 to 100 | 100 to 1000 |  |  |  |  |  | COc1cc(N2CCN(C(=O)CN3CCC(c4ccc(NC5CCC(=O)NC5=O)cc4)CC3)CC2C)ccc1Nc1ncc(Cl)c(Nc2ccccc2C(C)=O)n1 (stereo not drawn) [Compound T-60]
50 to 70 | 10 to 100 | 100 to 1000 | 10 to 100 | 10 to 100 |  |  |  |  |  | COc1nc(N2CCN(C(=O)CN3CCC(c4ccc(NC5CCC(=O)NC5=O)cc4)CC3)CC2)ccc1Nc1ncc(Cl)c(Nc2ccccc2P(C)(C)=O)n1 (stereo not drawn) [Compound T-203]
50 to 70 | 10 to 100 | 100 to 1000 | 10 to 100 | 100 to 1000 |  |  |  |  |  | COc1cc(N2CCN(CCN3CCC(c4ccc(NC5CCC(=O)NC5=O)cc4)CC3)CC2)ccc1Nc1ncc(Cl)c(Nc2ccccc2C(C)=O)n1 (stereo not drawn) [Compound T-182]
50 to 70 | 10 to 100 | 100 to 1000 | 10 to 100 | 10 to 100 |  |  |  |  |  | COc1cc(N2CCN(C(=O)CN3CCC(c4ccc(NC5CCC(=O)NC5=O)cc4)CC3)CC2)ccc1Nc1ncc(C(F)(F)F)c(Nc2ccccc2C(C)=O)n1 (stereo not drawn) [Compound T-47]
< 50 | 10 to 100 | ≥ 1000 | 10 to 100 | 100 to 1000 |  |  |  |  |  | COc1cc(N2CC3(CN(C(=O)CN4CCC(c5ccc(NC6CCC(=O)NC6=O)cc5)CC4)C3)C2)ccc1Nc1ncc(Cl)c(Nc2ccccc2C(C)=O)n1 (stereo not drawn) [Compound T-66]
50 to 70 | 10 to 100 | 100 to 1000 | 10 to 100 | 10 to 100 |  |  |  |  |  | COc1cc(N2CCC(N3CCN(C(=O)CN4CCC(c5ccc(NC6CCC(=O)NC6=O)cc5)CC4)CC3)CC2)ccc1Nc1ncc(Cl)c(Nc2ccccc2N(C)S(C)(=O)=O)n1 (stereo not drawn) [Compound T-211]
70 to 100 | 10 to 100 | 10 to 100 | ≤ 10 | 10 to 100 |  |  |  |  |  | CNC(=O)c1ccccc1Nc1nc(Nc2cc(C)c(N3CCN(C(=O)CN4CCC(c5ccc(NC6CCC(=O)NC6=O)cc5)CC4)CC3)cc2OC)ncc1Cl (stereo not drawn) [Compound T-254]
< 50 | 10 to 100 | ≥ 1000 | 100 to 1000 | 10 to 100 |  |  |  |  |  | COc1cc(N2CC[C@H](N(C)C(=O)CN3CCC(c4ccc(NC5CCC(=O)NC5=O)cc4)CC3)C2)ccc1Nc1ncc(Cl)c(Nc2ccccc2C(C)=O)n1 (stereo partly drawn) [Compound T-172]
